{"source": "patent US10610520B2", "about": "“Heterocyclic compound” (Takeda Pharmaceutical Company Limited, priority 2016, dated 2020)", "system": "intracerebral 2-AG and arachidonic acid", "experiment": "Measurement of intracerebral 2-AG and arachidonic acid concentrations after oral administration", "assay_type": "in vivo, C57BL/6J mice", "conditions": "for 2-AG concentration / arachidonic acid concentration: cerebrum, male C57BL/6J mice, 3 mg/kg by gavage; for 2-AG concentration: control 9.9; for arachidonic acid concentration: control 163.5; for migration into brain: oral administration to C57BL/6J mice, 3 mg/kg", "method": "As the mouse, 8-week-old male C57BL/6J mice (CLEA Japan, Inc.) were used (6 mice/group). Administration solutions were prepared by suspending the test compounds (compound 1 (compound of Example 279), compound 2 (compound of Example 361) and compound 3 (compound of Example 362)) in 0.5% methylcellulose solution (Wako Pure Chemical Industries, Ltd.). The dose of the test compound was prepared to be 3 mg/kg body weight/10 mL. The test compounds were administered by gavage at 3 mg/kg body weight. The cerebrum was isolated after the administration of the test compound (isolation time after the administration of the test compound is shown in Table 3), and the cerebrum hemisphere was extracted. The obtained cerebrum hemisphere was frozen on dry ice, and the frozen tissue weight was measured.\nThe cerebral tissue weight was measured, and cerebral tissue was homogenized with 4-fold (v/w) of isopropanol (IPA), and double diluted with IPA. To the diluted sample (200 μL) was added internal standard solution (5 μL) ([5,6,8,9,11,12,14,15-D8]-(5Z,8Z,11Z,14Z)5,8,11,14-eicosatetraenoic acid (AA-d8, 0.5 nmol/mL IPA) and [5,6,8,9,11,12,14,15-D8]-(5Z,8Z,11Z,14Z)-5,8,11,14-eicosatetraenoyl-2-glycerol ester (2-AG-d3, 0.5 nmol/mL IPA)), and the mixture was centrifuged at 15000 rpm for 5 min. The supernatant was injected to liquid chromatography mass spectrometer to perform quantitative analysis.\nFor liquid chromatography, Shimadzu LC20A system (Shimadzu Corporation) was used. The separation was performed by gradient elution method with mobile phase A (10 mmol/L HCOONH4/HCOOH (100:0.2, v/v)) and mobile phase B (ethanol/IPA (3:2, v/v)) using Shim-pack XR-ODS (2.2 μm, 2.0×30 mm, Shimadzu Corporation) at column temperature of 50° C., at flow rate of 0.5 mL/min. The gradient conditions are as follows: 0-1 min, 1% B; 1-1.2 min, 1-55% B; 1.2-2.7 min, 55-75% B; 2.7-3.5 min, 75-99% B; 3.5-6 min, 99% B; 6-8 min, 1% B.\nFor mass spectrometer, API5000 (AB SCIEX) was used. The eluate from the liquid chromatography was directly ionized by turbospray ionization method, where (5Z,8Z,11Z,14Z)5,8,11,14-eicosatetraenoic acid (AA) and AA-d8 were measured by negative ionization mode, and (5Z,8Z,11Z,14Z)5,8,11,14-eicosatetraenoyl-2-glycerol ester (2-AG) and 2-AG-d3 were measured by positive ionization mode.\nA solution for calibration curve was prepared to the concentration of 2, 5, 10, 20, 50, 100, 200, 500, 1000 nmol/mL of acetonitrile. These solutions (10 μL) was mixed with 200 μL of IPA and 5 μL of internal standard solution, and the mixture was centrifuged at 15000 rpm for 5 min, and the supernatant was injected to liquid chromatography mass spectrometer to perform analysis. The calibration curve was drawn by regression line with a weighting of 1/x^2, and the quantitativity was confirmed by accuracy of 100±20% and R^2>0.99.", "key": {"[1]": {"conditions": "isolation 2 hour after administration"}, "[2]": {"conditions": "isolation 1 hour after administration"}}}
{"molecule": "O=C1NC2(CO1)CN(C(=O)c1sc3c(F)c(OC(F)(F)F)ccc3c1Cl)C2", "note": "[compound 1, 2-((3-chloro-7-fluoro-6-(trifluoromethoxy)-1-benzothiophen-2-yl)carbonyl)-7-oxa-2,5-diazaspiro[3.4]octan-6-one]", "values": [{"measurement": "2-AG concentration", "setting": "[1]", "result": 73.2, "unit": "nmol/g"}, {"measurement": "arachidonic acid concentration", "setting": "[1]", "result": 109.4, "unit": "nmol/g"}, {"measurement": "migration into brain", "result": "migrated into brain"}]}
{"molecule": "O=C1NC2(CO1)CN(C(=O)c1sc3cc(F)ccc3c1Cl)C2", "note": "[compound 2, 2-((3-chloro-6-fluoro-1-benzothiophen-2-yl)carbonyl)-7-oxa-2,5-diazaspiro[3.4]octan-6-one]", "values": [{"measurement": "2-AG concentration", "setting": "[2]", "result": 30.2, "unit": "nmol/g"}, {"measurement": "arachidonic acid concentration", "setting": "[2]", "result": 151.8, "unit": "nmol/g"}, {"measurement": "migration into brain", "result": "migrated into brain"}]}
{"molecule": "O=C1NC2(CO1)CN(C(=O)c1sc3cc(F)cc(F)c3c1Cl)C2", "note": "[compound 3, 2-((3-chloro-4,6-difluoro-1-benzothiophen-2-yl)carbonyl)-7-oxa-2,5-diazaspiro[3.4]octan-6-one]", "values": [{"measurement": "2-AG concentration", "setting": "[2]", "result": 25.7, "unit": "nmol/g"}, {"measurement": "arachidonic acid concentration", "setting": "[2]", "result": 156.1, "unit": "nmol/g"}, {"measurement": "migration into brain", "result": "migrated into brain"}]}
